Numbers after ± are expanded uncertainties.
Test: mn = molality of the nth substance listed, in mol/kg
Settings: 100 kPa, Liquid; for speed of sound: Frequency=3 MHz, Sing-around technique in a fixed-path interferometer; for mass density: Vibrating tube method

CC(C)Cc1ccc(C(C)C(=O)[O-])cc1.[Na+] (stereo not given) [sodium ibuprofen] + O
Settings | mass density, 288.15 K [kg/m3] | mass density, 293.15 K [kg/m3] | mass density, 298.15 K [kg/m3] | mass density, 303.15 K [kg/m3] | mass density, 308.15 K [kg/m3] | speed of sound, 288.15 K [m/s] | speed of sound, 293.15 K [m/s] | speed of sound, 298.15 K [m/s] | speed of sound, 303.15 K [m/s] | speed of sound, 308.15 K [m/s]
m1 = 0.05 | 1003.2 ± 2 | 1002.24 ± 2 | 1001.03 ± 2 | 999.585 ± 2 | 997.921 ± 2 | 1477.5 ± 2.4 | 1492.8 ± 2.4 | 1506 ± 2.4 | 1517.7 ± 2.4 | 1527.8 ± 2.4
m1 = 0.15 | 1007.46 ± 2 | 1006.39 ± 2 | 1005.07 ± 2 | 1003.52 ± 2 | 1001.77 ± 2 | 1496.9 ± 2.4 | 1510.7 ± 2.4 | 1522.9 ± 2.4 | 1533.4 ± 2.4 | 1542.4 ± 2.4
m1 = 0.25 | 1010.79 ± 2 | 1009.6 ± 2 | 1008.17 ± 2 | 1006.53 ± 2 | 1004.69 ± 2 | 1510.2 ± 2.4 | 1522.3 ± 2.4 | 1533.1 ± 2.4 | 1542.4 ± 2.4 | 1550.3 ± 2.4
m1 = 0.35 | 1015.17 ± 2 | 1013.83 ± 2 | 1012.29 ± 2 | 1010.55 ± 2 | 1008.62 ± 2 | 1518.1 ± 2.4 | 1529.1 ± 2.4 | 1538.9 ± 2.4 | 1547.4 ± 2.4 | 1554.5 ± 2.4
